Activity calls are given as the source filed them. The rule behind the calls is not given here.
Legend:
[1] = test system: Canis familiaris; assay: Diuretic activity in dog assessed as urine volume measured in water at 1 mg/kg, iv after 3 hrs; format: functional
[2] = test system: Canis familiaris; assay: Saluretic activity in dog assessed as urinary excretion of potassium level at 1 mg/kg, iv after 3 hrs; format: functional, Canis lupus familiaris, Urine
[3] = test system: Canis familiaris; assay: Saluretic activity in dog assessed as urinary excretion of sodium level at 1 mg/kg, iv after 3 hrs; format: functional, Canis lupus familiaris, Urine
[4] = test system: Canis familiaris; assay: Saluretic activity in dog assessed as urinary excretion of chloride level at 1 mg/kg, iv after 3 hrs; format: functional, Canis lupus familiaris, Urine
[5] = test system: Canis familiaris; assay: Saluretic activity in dog assessed as urinary excretion of chloride level at 0.1 mg/kg, po after 3 hrs; format: functional, Canis lupus familiaris, Urine
[6] = test system: Canis familiaris; assay: Saluretic activity in dog assessed as urinary excretion of potassium level at 1 mg/kg, po after 3 hrs; format: functional, Canis lupus familiaris, Urine
[7] = test system: Canis familiaris; assay: Diuretic activity in dog assessed as urine volume measured in water at 0.1 mg/kg, po after 3 hrs; format: functional, Canis lupus familiaris
[8] = test system: Canis familiaris; assay: Saluretic activity in dog assessed as urinary excretion of sodium level at 1 mg/kg, po after 3 hrs; format: functional, Canis lupus familiaris, Urine
[9] = test system: Canis familiaris; assay: Saluretic activity in dog assessed as urinary excretion of sodium level at 0.1 mg/kg, po after 3 hrs; format: functional, Canis lupus familiaris, Urine
[10] = test system: Canis familiaris; assay: Diuretic activity in dog assessed as urine volume measured in water at 1 mg/kg, po after 3 hrs; format: functional, Canis lupus familiaris
[11] = test system: Canis familiaris; assay: Saluretic activity in dog assessed as urinary excretion of potassium level at 0.1 mg/kg, po after 3 hrs; format: functional, Canis lupus familiaris, Urine
[12] = test system: Canis familiaris; assay: Saluretic activity in dog assessed as urinary excretion of chloride level at 1 mg/kg, po after 3 hrs; format: functional, Canis lupus familiaris, Urine
[13] = test system: Canis familiaris; assay: Saluretic activity in dog assessed as urinary excretion of potassium level at 0.25 mg/kg, po after 3 hrs; format: functional, Canis lupus familiaris, Urine
[14] = test system: Canis familiaris; assay: Saluretic activity in dog assessed as urinary excretion of sodium level at 0.25 mg/kg, po after 3 hrs; format: functional, Canis lupus familiaris, Urine
[15] = test system: Canis familiaris; assay: Saluretic activity in dog assessed as urinary excretion of chloride level at 0.25 mg/kg, po after 3 hrs; format: functional, Canis lupus familiaris, Urine
[16] = test system: Canis familiaris; assay: Diuretic activity in dog assessed as urine volume measured in water at 0.25 mg/kg, po after 3 hrs; format: functional, Canis lupus familiaris
[17] = test system: Canis familiaris; assay: Saluretic activity in dog assessed as urinary excretion of sodium level at 0.1 mg/kg, iv after 3 hrs; format: functional, Canis lupus familiaris, Urine
[18] = test system: Canis familiaris; assay: Diuretic activity in dog assessed as urine volume measured in water at 0.1 mg/kg, iv after 3 hrs; format: functional, Canis lupus familiaris
[19] = test system: Canis familiaris; assay: Saluretic activity in dog assessed as urinary excretion of potassium level at 0.1 mg/kg, iv after 3 hrs; format: functional, Canis lupus familiaris, Urine
[20] = test system: Canis familiaris; assay: Saluretic activity in dog assessed as urinary excretion of chloride level at 0.1 mg/kg, iv after 3 hrs; format: functional, Canis lupus familiaris, Urine
[21] = test system: Canis familiaris; assay: Diuretic activity in dog assessed as urine volume measured in water at 10 mg/kg, iv after 3 hrs; format: functional, organism-based; parameters: dose 10 mg/kg; conditions: Canis lupus familiaris
[22] = test system: Canis familiaris; assay: Diuretic activity in dog assessed as urine volume measured in water at 0.01 mg/kg, iv after 3 hrs; format: functional, Canis lupus familiaris
[23] = test system: Canis familiaris; assay: Saluretic activity in dog assessed as urinary excretion of sodium level at 0.01 mg/kg, iv after 3 hrs; format: functional, Canis lupus familiaris, Urine
[24] = test system: Canis familiaris; assay: Saluretic activity in dog assessed as urinary excretion of potassium level at 0.01 mg/kg, iv after 3 hrs; format: functional, Canis lupus familiaris, Urine
[25] = test system: Canis familiaris; assay: Saluretic activity in dog assessed as urinary excretion of chloride level at 0.01 mg/kg, iv after 3 hrs; format: functional, Canis lupus familiaris, Urine
[26] = test system: Canis familiaris; assay: Diuretic activity in dog assessed as urine volume measured in water at 0.25 mg/kg, iv after 3 hrs; format: functional; conditions: Canis lupus familiaris

O=C(O)c1cc(NCc2ccccc2)c2c(c1)S(=O)(=O)C=C2c1ccccc1
Activity ([1]; Canis lupus familiaris): inactive

C[S+]([O-])c1cc(C(=O)O)cc(NCc2ccccc2)c1Oc1ccccc1 (centres undefined)
Activity [2]: 0.17 milliequivalent/kg
Activity [3]: 0.9 milliequivalent/kg
Activity [4]: 1.1 milliequivalent/kg
Activity [1]: 7 mL/kg

CCCCNc1cc(C(=O)O)cc2c1C(O)(c1ccccc1)CS2(=O)=O (centres undefined)
Activity ([1]; Canis lupus familiaris): inactive

CCCCOc1cc(C(=O)O)cc(S(C)(=O)=O)c1C(=O)c1ccccc1
Activity [5]: 0.8 milliequivalent/kg
Activity [6]: 0.54 milliequivalent/kg
Activity [7]: 4 mL/kg
Activity [8]: 2.6 milliequivalent/kg
Activity [9]: 0.5 milliequivalent/kg
Activity [10]: 24 mL/kg
Activity [11]: 0.22 milliequivalent/kg
Activity [12]: 3.4 milliequivalent/kg

CCCCNc1cc(C(=O)O)cc(S(C)(=O)=O)c1C(=O)c1ccccc1
Activity [13]: 0.19 milliequivalent/kg
Activity [14]: 0.9 milliequivalent/kg
Activity [15]: 1.2 milliequivalent/kg
Activity [16]: 9 mL/kg

CCCCNc1cc(C(=O)O)cc(S(C)(=O)=O)c1Oc1ccccc1
Activity [17]: 0.6 milliequivalent/kg
Activity [2]: 0.22 milliequivalent/kg
Activity [3]: 2.1 milliequivalent/kg
Activity [18]: 3 mL/kg
Activity [19]: 0.19 milliequivalent/kg
Activity [20]: 0.4 milliequivalent/kg
Activity [4]: 2.7 milliequivalent/kg
Activity [1]: 15 mL/kg

CS(=O)(=O)c1cc(C(=O)O)cc(NCc2ccccc2)c1C(=O)c1ccccc1
Activity [5]: 1.7 milliequivalent/kg
Activity [6]: 0.64 milliequivalent/kg
Activity [7]: 12 mL/kg
Activity [8]: 3.9 milliequivalent/kg
Activity [9]: 1.2 milliequivalent/kg
Activity [10]: 33 mL/kg
Activity [11]: 0.28 milliequivalent/kg
Activity [12]: 4.7 milliequivalent/kg

CS(=O)(=O)c1cc(C(=O)O)c(NCc2ccccc2)cc1Oc1ccccc1
Activity [21]: inactive

NS(=O)(=O)c1cc(C(=O)O)c(NCc2ccco2)cc1Oc1ccccc1
Activity [22]: 8 mL/kg
Activity [17]: 2.9 milliequivalent/kg
Activity [23]: 0.6 milliequivalent/kg
Activity [18]: 25 mL/kg
Activity [19]: 0.45 milliequivalent/kg
Activity [24]: 0.27 milliequivalent/kg
Activity [20]: 3.8 milliequivalent/kg
Activity [25]: 0.8 milliequivalent/kg

CS(=O)(=O)c1cc(C(=O)O)cc(NCc2ccccc2)c1Nc1ccccc1
Activity [26]: inactive

CCCCSc1cc(C(=O)O)cc(S(C)(=O)=O)c1Oc1ccccc1
Activity [2]: 0.64 milliequivalent/kg
Activity [3]: 3 milliequivalent/kg
Activity ([18]; Canis lupus familiaris): inactive
Activity [4]: 3.2 milliequivalent/kg
Activity [1]: 21 mL/kg

Source: ChEMBL document CHEMBL3272261, “Aminobenzioc acid diuretics. 8.(2) 3, 4-Disubstituted 5-methylsulfonylbenzioc acids and related compounds” (1976)
